Measured values: ChEMBL document CHEMBL1147329, “Cytotoxic principles and their derivatives of Formosan Solanum plants” (1993)
In brackets after ≈: the same amount, converted by molar mass. Activity calls are given as the source filed them. The calls are words filed in the database; no cut-off is given here.

Legend:
[1] = Cytotoxicity against human PLC/PRF/5 cells; format: functional; conditions: read-out: ED50 (the source's name)
[2] = test system: KB; experiment: Cytotoxicity against human KB cells; format: functional; conditions: read-out: ED50 (the source's name)
[3] = test system: Mus musculus; experiment: Protective activity against CCL4-induced hepatotoxicity in ICR mouse assessed as SGOT/SGPT levels at 0.1 to 3 mg/kg, ip

Compound	EC50 [1] [µg/mL]	EC50 [2] [µg/mL]	Activity [3]
C[C@H]1CC[C@H]([C@@H](C)[C@H]2[C@H](O)C[C@H]3[C@@H]4CC=C5C[C@@H](O[C@@H]6O[C@H](CO)[C@@H](O)[C@H](O)[C@H]6O)CC[C@]5(C)[C@H]4CC[C@]23C)NC1 [CAPSICASTRINE]	1.78 (≈ 3.08 µM)	–	–
C[C@@H]1CC[C@]2(O[C@H]3C[C@H]4[C@@H]5CC=C6C[C@@H](O)CC[C@]6(C)[C@H]5CC[C@]4(C)[C@H]3[C@@H]2C)N(C)C1	8.02 (≈ 18.8 µM)	6 (≈ 14 µM)	–
C[C@H]1CC=C([C@@H](C)[C@H]2[C@H](O)C[C@H]3[C@@H]4CC=C5C[C@@H](O)CC[C@]5(C)[C@H]4CC[C@]23C)NC1 [ETIOLINE]	2.67 (≈ 6.45 µM)	11.2 (≈ 27.1 µM)	–
O=C1C[C@@H](c2ccc(O)cc2)Oc2cc(O)cc(O)c21 [NARINGENIN]	2.47 (≈ 9.07 µM)	2.71 (≈ 9.95 µM)	–
C[C@@H]1CC[C@@]2(NC1)O[C@H]1C[C@H]3[C@@H]4CC=C5C[C@@H](O[C@@H]6O[C@H](CO)[C@@H](O[C@@H]7O[C@@H](C)[C@H](O)[C@@H](O)[C@H]7O)[C@H](O)[C@H]6O)CC[C@]5(C)[C@H]4CC[C@]3(C)[C@H]1[C@@H]2C	–	–	Active
C[C@H]1CC[C@H]([C@@H](C)[C@H]2[C@H](O)C[C@H]3[C@@H]4CC=C5C[C@@H](O)CC[C@]5(C)[C@H]4CC[C@]23C)NC1 [CAPSIMINE]	1.97 (≈ 4.74 µM)	1.35 (≈ 3.25 µM)	Active
C[C@@H]1CC[C@H]([C@@H](C)C2[C@H](O)C[C@H]3[C@@H]4CC=C5C[C@@H](O[C@@H]6O[C@H](CO)[C@@H](O)[C@H](O)[C@H]6O)CC[C@]5(C)[C@H]4CC[C@]23C)NC1 (some centres undefined)	–	–	Active
C[C@@H]1CC[C@@]2(NC1)O[C@H]1C[C@H]3[C@@H]4CC=C5C[C@@H](O[C@@H]6O[C@H](CO)[C@H](O)[C@H](O[C@@H]7O[C@H](CO)[C@@H](O)[C@H](O)[C@H]7O)[C@H]6O[C@@H]6O[C@@H](C)[C@H](O)[C@@H](O)[C@H]6O)CC[C@]5(C)[C@H]4CC[C@]3(C)[C@H]1[C@@H]2C [SOLASONINE]	7.88 (≈ 8.91 µM)	11.4 (≈ 12.9 µM)	–
